This note sets out measurements from patent US20080279775A1, “Benztropinamine Analogs as Dopamine Uptake Inhibitors” (priority 2005, published 2008).

A word on the Ki: it is the equilibrium dissociation constant of an inhibitor or competing ligand from its target.

In one assay the target is T1, DAT (Rattus norvegicus, UniProt P23977).
T1 construct: their brains removed to an ice-cooled dish for dissection of the caudate putamen; from tissue; host or cells: rat caudate putamen membranes (fresh homogenates)
As to the kind of experiment: Dopamine transporter binding assay, displacement of [3H]WIN 35,428. The note with it: for Ki: rat caudate-putamen membranes, read-out: DAT [3H]WIN 35,428 Ki ± SEM. For orientation: In a radioligand displacement assay an active substance lowers the binding of a labelled ligand.

The subject of assay [1] is NET. The format is binding, rat. The settings on record: Ki ratio. The procedure: (§1) In order to understand the neurochemical and behavioral properties of the compounds of the present invention, exemplary benztropinamine analogs were evaluated for displacement of [^3H]WIN 35,428 (2β-carbomethoxy-3β-(4-fluorophenyl)tropane) binding to the DAT in rat caudate-putamen. These benztropinamine analogs were also evaluated for displacement of radiolabeled ligand binding at the serotonin (SERT) and norepinephrine (NET) transporters as well as the muscarinic m1 receptor (M1), Table 1, infra. The NET over DAT selectivity refers to the Ki ratio. When the Ki ratio is greater than 1, the compound is DAT selective. The DAT selectivities of the analogs over these binding sites are depicted in Table 2.
(§2) [^3H]Nisoxetine Binding Assay. Membranes from frozen frontal cortex dissected from male Sprague-Dawley rats (Taconic Labs, Germantown, N.Y.) were homogenized in 20 volumes (w/v) of 50 mM Tris containing 120 mM NaCl and 5 mM KCl (pH 7.4 at 25° C.), using a Brinkman Polytron (at setting 6 for 20 sec). The tissue was centrifuged at 50,000×g for 10 min at 4° C. The resulting pellet was resuspended in buffer and recentrifuged. The final pellet was resuspended in cold buffer to a concentration of 80 mg/ml (original wet weight). Ligand binding experiments were conducted in assay tubes containing 0.5 ml buffer, 0.5 nM [3H]nisoxetine (New England Nuclear, Boston, Mass.), and 8 mg frontal cortex tissue. The reaction was started with the addition of the tissue and the tubes were incubated for 60 min at 0-4° C. The incubation was terminated by rapid filtration through Whatman GF/B filters, presoaked in 0.05% polyethylenimine, using a Brandel Cell Harvester (Brandel Instruments Gaithersburg, Md.). The filters were washed twice with 5 ml cold buffer, transferred to scintillation vials to which Beckman Ready Safe was added. Nonspecific binding was determined using 1 μM desipramine. Data were analyzed using GraphPad Prism software (San Diego, Calif.).

The target in assay [2] is NET (Rattus norvegicus, UniProt Q63380). The format is binding. The settings on record: lower affinity than 2a. As for the experimental part: as §1, §2
The target of another assay is T2, SERT (Rattus norvegicus, UniProt P31652).
T2 construct: Membranes from frozen rat midbrain were homogenized; from tissue; host or cells: frozen rat midbrain membranes
As to the kind of experiment: [3H]Citalopram binding assay. The settings on record: for Binding selectivity SERT/DAT: Ki ratio. The procedure: as §1
[^3H]Citalopram Binding Assay. Membranes from frozen rat midbrain were homogenized in 20 volumes (w/v) of 50 mM Tris containing 120 mM NaCl and 5 mM KCl (pH 7.4 at 25° C.), using a Brinkman Polytron (at setting 6 for 20 sec). The tissue was centrifuged at 20,000×g for 10 min at 4° C. The resulting pellet was resuspended in buffer and recentrifuged. The final pellet was resuspended in cold buffer to a concentration of 15 mg/ml (original wet weight). Ligand binding experiments were conducted in assay tubes containing 0.5 ml of buffer, 1.4 nM [^3H]citalopram (New England Nuclear, Boston Mass.), and 1.5 mg midbrain tissue. The reaction was started with the addition of the tissue and the tubes were incubated for 60 min at 25° C. (room temperature). The incubation was terminated by rapid filtration through Whatman GF/B filters (presoaked in 0.3% polyethylenimine in water) using a Brandel Cell Harvester (Brandel Instruments Gaithersburg, Md.). The filters were washed twice with 5 ml cold buffer, transferred to scintillation vials to which Beckman Ready Safe was added. Nonspecific binding was determined using 10 μM fluoxetine (RBI, Natick, Mass.). Data were analyzed using GraphPad Prism software (San Diego, Calif.).

The target in another assay is T3, muscarinic M1 receptor (Rattus norvegicus, UniProt P08482).
T3 construct: Membranes from frozen rat brains excluding cerebellum were thawed in ice-cold buffer; from tissue; host or cells: frozen rat brain (excluding cerebellum) membranes
T3 sequence (P08482 1-460): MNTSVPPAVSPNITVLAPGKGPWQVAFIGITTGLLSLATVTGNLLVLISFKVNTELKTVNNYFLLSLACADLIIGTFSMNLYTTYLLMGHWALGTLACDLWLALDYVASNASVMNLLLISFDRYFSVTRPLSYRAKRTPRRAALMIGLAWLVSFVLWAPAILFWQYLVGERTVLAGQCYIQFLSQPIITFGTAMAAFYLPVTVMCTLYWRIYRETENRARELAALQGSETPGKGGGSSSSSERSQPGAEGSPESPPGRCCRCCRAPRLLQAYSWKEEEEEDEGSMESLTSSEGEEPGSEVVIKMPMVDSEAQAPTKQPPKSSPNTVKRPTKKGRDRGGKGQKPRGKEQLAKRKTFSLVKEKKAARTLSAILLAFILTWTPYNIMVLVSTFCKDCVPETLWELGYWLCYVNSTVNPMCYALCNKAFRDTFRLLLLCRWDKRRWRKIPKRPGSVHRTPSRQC
As to the kind of experiment: [3H]Pirenzepine binding assay. The note with it: for Binding selectivity M1/DAT: Ki ratio. The procedure:
as §1, with “When the Ki ratio is greater than 1, the compound is DAT selective.” left out
[…] Binding Assay. Membranes from frozen rat brains excluding cerebellum were thawed in ice-cold buffer (10 mM Tris-HCl, 320 mM sucrose, pH 7.4) and homogenized with a Brinkman polytron in a volume of 10 ml/gm of tissue. The homogenate was centrifuged at 1,000×g for 10 min at 4° C. The resulting supernatant was then centrifuged at 10,000×g for 20 min at 4° C. The resulting pellet was resuspended in a volume of 200 mg/ml in 10 mM Tris buffer (pH 7.4). Ligand binding assays were conducted in tubes containing 0.5 ml of buffer (10 mM Tris-HCl, 5 mM MgCl2), 3 nM [^3H]pirenzepine (New England Nuclear, Boston, Mass.), and 20 mg of brain tissue. The reaction was started with the addition of the tissue and the tubes were incubated for 60 min in a 37° C. water bath. The incubation was terminated by the addition of 5 ml of ice-cold buffer (10 mM Tris-HCl, pH 7.4) and rapid filtration through Whatman GF/B glass fiber filter paper (presoaked in 0.5% polyethylenimine) using a Brandel Cell Harvester (Brandel Instruments, Gaithersburg, Md.). The filters were washed twice with 5 ml cold buffer, and transferred to scintillation vials to which absolute ethanol and Beckman Ready Safe was added. Quinuclidinyl benzilate (QNB), 100 μM final concentration, was used to determine non-specific binding. Data were analyzed by using GraphPad Prism software (San Diego, Calif.).

For another assay, the system named is rats. As to the kind of experiment: Cocaine drug discrimination (cocaine-like subjective effects). Type of assay: in vivo. The settings on record: rats trained to discriminate cocaine from vehicle, over the dose range tested, FIGS. 3A and 3B. The text has this: FIG. 3A depicts % drug responding as a function of dose; FIG. 3B depicts % control response rate as a function of dose.
Rats were trained to emit one response after an injection of cocaine and a different response after injection of vehicle. Once the subjects were well trained, they act as detectors of cocaine-like subjective effects.

The test system of another assay is mice. As to the kind of experiment: Locomotor stimulant effects (activity counts per minute). The format is in vivo. The text has this:
In contrast, 2m produced much more modest increases in activity of around 100 counts per min.

Where “and” joins values, the source holds several entries; their conditions need not be identical. Equal values may be shown once. Entries after “also recorded” stand apart in the source; their conditions may differ. Read-outs that look alike come from different tables or passages of the source.

T2 sequence (P31652 whole entry): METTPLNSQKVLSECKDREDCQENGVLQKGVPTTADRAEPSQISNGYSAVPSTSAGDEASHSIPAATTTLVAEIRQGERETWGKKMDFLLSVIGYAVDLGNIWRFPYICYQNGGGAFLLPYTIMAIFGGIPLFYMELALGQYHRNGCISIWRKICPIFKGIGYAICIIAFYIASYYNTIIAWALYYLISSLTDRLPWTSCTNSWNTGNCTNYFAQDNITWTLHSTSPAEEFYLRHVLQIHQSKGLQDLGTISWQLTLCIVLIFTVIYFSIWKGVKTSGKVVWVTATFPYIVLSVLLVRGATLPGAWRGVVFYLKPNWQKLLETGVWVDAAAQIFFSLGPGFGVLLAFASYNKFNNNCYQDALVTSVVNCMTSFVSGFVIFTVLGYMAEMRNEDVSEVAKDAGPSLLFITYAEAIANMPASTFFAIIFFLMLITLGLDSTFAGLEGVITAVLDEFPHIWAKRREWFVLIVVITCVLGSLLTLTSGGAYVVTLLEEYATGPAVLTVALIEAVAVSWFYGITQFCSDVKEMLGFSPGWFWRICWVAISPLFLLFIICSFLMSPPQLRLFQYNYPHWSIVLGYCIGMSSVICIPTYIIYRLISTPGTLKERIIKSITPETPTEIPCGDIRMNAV
T1 sequence (P23977 whole entry): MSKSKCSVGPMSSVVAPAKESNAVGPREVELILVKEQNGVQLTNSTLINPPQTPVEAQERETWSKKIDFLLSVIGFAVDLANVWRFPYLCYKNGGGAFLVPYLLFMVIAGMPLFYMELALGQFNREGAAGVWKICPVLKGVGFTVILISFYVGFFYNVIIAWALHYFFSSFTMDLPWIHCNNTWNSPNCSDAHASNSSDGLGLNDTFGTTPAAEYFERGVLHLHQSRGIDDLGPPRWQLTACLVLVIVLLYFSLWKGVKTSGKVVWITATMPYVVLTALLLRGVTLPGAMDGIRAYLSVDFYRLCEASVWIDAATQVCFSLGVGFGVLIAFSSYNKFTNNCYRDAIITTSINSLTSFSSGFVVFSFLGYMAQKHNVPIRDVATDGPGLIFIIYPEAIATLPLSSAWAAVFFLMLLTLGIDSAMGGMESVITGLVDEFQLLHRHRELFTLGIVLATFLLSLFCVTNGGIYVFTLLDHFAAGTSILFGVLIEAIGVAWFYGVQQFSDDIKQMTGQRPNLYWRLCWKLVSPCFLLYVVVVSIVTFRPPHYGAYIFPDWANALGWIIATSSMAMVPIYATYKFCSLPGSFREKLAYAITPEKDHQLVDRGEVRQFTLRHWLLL
NET (Rattus norvegicus, UniProt Q63380), sequence (Q63380 1-617): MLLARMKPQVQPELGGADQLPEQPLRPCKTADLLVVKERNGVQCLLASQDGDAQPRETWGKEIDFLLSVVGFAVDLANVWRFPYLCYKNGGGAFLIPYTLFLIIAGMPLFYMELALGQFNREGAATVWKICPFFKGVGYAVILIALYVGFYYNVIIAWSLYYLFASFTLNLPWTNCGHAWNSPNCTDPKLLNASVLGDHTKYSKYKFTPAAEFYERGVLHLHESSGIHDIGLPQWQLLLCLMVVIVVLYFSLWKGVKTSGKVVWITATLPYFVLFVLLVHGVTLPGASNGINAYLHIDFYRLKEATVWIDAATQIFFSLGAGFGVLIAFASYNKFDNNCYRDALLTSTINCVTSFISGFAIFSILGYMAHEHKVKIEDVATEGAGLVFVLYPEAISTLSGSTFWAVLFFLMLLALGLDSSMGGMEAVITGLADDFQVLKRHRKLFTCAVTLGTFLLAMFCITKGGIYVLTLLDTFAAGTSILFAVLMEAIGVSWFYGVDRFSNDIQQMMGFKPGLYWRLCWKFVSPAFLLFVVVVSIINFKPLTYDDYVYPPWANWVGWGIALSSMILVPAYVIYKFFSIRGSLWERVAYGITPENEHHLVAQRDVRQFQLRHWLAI

On to `CN(C(c1ccc(F)cc1)c1ccc(F)cc1)[C@H]1C[C@H]2CC[C@@H](C1)N2C` [Compound 2c], for which, at DAT (lower affinity than 2a), the “Reduction of binding affinity at the DAT compared to 2a” value was 11 fold. The Ki at DAT came out at 123 ± 15.5 nM; on SERT, 17200 ± 2460 nM; at muscarinic M1 receptor it was 18.6 ± 2.48 nM. The “Binding selectivity NET/DAT” value in the assay with NET [1] is on record as 68. Moreover, the “Lower binding affinity at the NET compared to 2a” value on NET [2] is given as “about 5 fold”. For the same compound, the “Binding selectivity SERT/DAT” value on SERT was 140. The “Lower binding affinity at the SERT compared to 2a” value at SERT (lower affinity than 2a) is “about 2 fold”. For the same compound, the “Binding selectivity M1/DAT” value at muscarinic M1 receptor is given as 0.2. In addition, at muscarinic M1 receptor (lower affinity than 2a), the “Lower binding affinity at the M1 receptor compared to 2a” value was “about 2 fold”.
Regarding `O=C(CCN1[C@@H]2CC[C@H]1C[C@@H](NC(c1ccc(F)cc1)c1ccc(F)cc1)C2)Nc1ccccc1` [Compound 2m], in the assay with rats, the “Cocaine-like subjective effects (substitution for cocaine)” value was “lacks cocaine-like subjective effects; also recorded: did not substitute for cocaine”. Also, the Ki turned out to be 4.61 nM at DAT; 608 ± 41 nM on SERT (rat midbrain membranes, read-out: SERT [3H]citalopram Ki ± SEM); 2540 ± 124 nM at muscarinic M1 receptor (rat brain membranes excluding cerebellum, read-out: M1 [3H]pirenzepine Ki ± SEM). Also, the “Binding selectivity NET/DAT” value with NET [1] was 535 and 536. In addition, the “Binding selectivity SERT/DAT” value at SERT is recorded as 132. Further, the “Cocaine-like locomotor stimulant effects” value in the assay with mice is recorded as “lacks cocaine-like locomotor stimulant effects”. Also, in the assay with mice (injected, at the most effective dose, FIG. 2), the Locomotor activity entry was “around 100 counts per min”. Also, the “Binding selectivity M1/DAT” value on muscarinic M1 receptor amounted to 551.
